Patent US20250000874A1, “BACTERIAL METABOLITES AND THEIR USE IN REDUCING INFLAMMATION” (LOYOLA UNIVERSITY OF CHICAGO, priority 2023, published 2025)
Entries after “also recorded” stand apart in the source; their conditions may differ.

What was measured:
NLRP3 inflammasome [1] = assay: Metabolites on IL-1β production after LPS priming and ATP, murine macrophages; assay type: cell-based, mouse; conditions: 10 or 50 μM 16 hours, 200 ng/ml LPS three hours, 5 mM ATP one hour
Procedure: (§1) FIG. 7A-7B. Bacteria metabolites (MQ and JE) reduce IL-1β expression. Murine macrophages, (FIG. 7A) or THP-1 macrophages (FIG. 7B) were pre-treated with either 10 μM (3.5 μg/mL), 50 μM (17 μg/mL) of JE, 10 μM (4.9 μg/mL), 50 μM (24 μg/mL) of MQ or combination of both for 16 hours. Macrophages were primed with 200 ng/ml of LPS for three hours, followed by inflammasome activation with 5 mM ATP for one hour. Supernatants were collected, IL-1B was measured by ELISA. ***, P<0.001
(§2) Next, the metabolites were tested individually to assess their regulatory effects on mouse macrophages and human THP-1 macrophages. Similar to the bacterial <10 kD supernatant fraction, both JE and MQ inhibited LPS-stimulated macrophage production of TNFa and IL-6 (FIG. 5), indicating it suppresses TLR4 agonist-induced production of pro-inflammatory cytokines by macrophages.

Mouse macrophages = assay: Metabolites on LPS-stimulated TNFα/IL-6 production, mouse macrophages; assay type: cell-based; conditions: 10 or 50 μM, 16 hours pre-treatment, 200 ng/mL LPS 3 hours, ELISA
Procedure: (§3) FIG. 5A-C. Bacteria metabolites (MQ, JE, and NC) reduce expression of pro-inflammatory cytokines. Mouse macrophages cells, (FIG. 5A, FIG. 5B) Human Corneal Epithelial Cells (FIG. 5C) or THP-1 macrophages (FIG. 5D) were pre-treated with either 10 μM (3.5 μg/mL), 50 μM (17 μg/mL) of JE, 10UM (4.9 μg/mL), 50 μM (24 μg/mL) of MQ or combination of both for 16 hours, followed by 200 ng/mL of LPS to Mouse macrophages/THP1 cells, and 100 ng/ml of Flagellum to HCECs for 3 hours. The supernatants were collected and TNFα, IL-6 concentration was measured by ELISA. *, P<0.05, **. P<0.01, ***, P<0.001.
as §2
(§4) Cell Culture: Multiple macrophage cell lines were used in these experiments. Primary murine BMDMs were differentiated through isolation and treatment with L929 conditioned medium. C57BL/6 macrophages and BMDMs were seeded in complete DMEM (10% FBS+1% Penicillin-Streptomycin) in 24-well plates at concentrations of 5×10^5 and 2.5×10^5, respectively. THP-1 cells were maintained and grown in complete RPMI-1640 medium. Cells were differentiated by stimulating with PMA (100 nM) for three hours at 37° C. with 5% CO-2 until adherent. They were then collected and plated at a density of 2.5×10^5 cells per well in 24-well plates with serum-free RPMI and incubated overnight.

NLRP3 inflammasome [2] = assay: Metabolites on IL-1β production after LPS priming and ATP, THP-1 macrophages; assay type: cell-based, human; conditions: 10 or 50 μM 16 hours, 200 ng/ml LPS three hours, 5 mM ATP one hour
Procedure: as §1, §2

THP-1 macrophages = assay: Metabolites on LPS-stimulated TNFα/IL-6 production, THP-1 macrophages; assay type: cell-based, human; conditions: for IL-6 expression (FIG. 6): 10 μM JE, 10 μM MQ, 50 μM NC or combinations, 16 hours, 200 ng/ml LPS three hours; for LPS-stimulated macrophage production of IL-6 / LPS-stimulated macrophage production of TNFa: 10 or 50 μM, 16 hours pre-treatment, 200 ng/mL LPS 3 hours, ELISA
Procedure: as §3
FIG. 6. Bacteria metabolites (MQ, JE, and NC) reduce IL-6 expression. THP-1 macrophages were pre-treated with either 10 μM (3.5 μg/mL) of JE, 10 μM (4.9 μg/mL) of MQ or 50UM of NC or different combinations of all three for 16 hours, followed by 200 ng/ml of LPS for three hours. Supernatants were collected and IL-6 concentration was measured by ELISA. **. P<0.01.
as §2, §4

[3] = system: CACO-2 epithelium cells / B6 Macrophages; assay: CACO-2 trans-well system with macrophages in lower well, metabolites JE, MQ, NC; assay type: cell-based; conditions: for TNFα production by cells in lower chamber: 50 μM in upper well overnight, 200 ng/ml LPS 3 hours; for ability to cross the tight junctions of epithelial cells: 50 μM in upper well on CACO-2 cells, overnight
Procedure: FIG. 8A-8B. The assessment of the permeability of the differentiated CACO-2 epithelium cells after the treatment of JE, MQ, and NC in trans-well system. (FIG. 8A) CACO-2 cells were seeded in the upper well, and B6 Macrophages were placed into the lower well. 50UM of JE, MQ, NC, or combination of all three was added to CACO-2 cells in the upper well. Samples and controls were incubated overnight at 37° C., 5% CO2, followed by the addition of 200 ng/ml LPS to the upper and lower wells for 3 hours (Left: lower chambers, right: upper chambers). Cell culture supernatants were collected and an ELISA was used to measure TNFα or IL-6 concentrations. (FIG. 8B) FitC-dextrans (4 KDa) were added into the upper chamber simultaneously as the sample tests were added. A high concentration of hydrochloric acid (HCl) as a control was added to the upper chamber to disrupt the tight junctions. FitC-dextran collected from the bottom chamber was measured by a fluorescence spectrometer (excitation, 490 nm; emission, 520 nm). Data shown are representative mean±s.d. (***, p<0.001, **, p<0.01).
As stated before, commensal bacteria are non-invading and the metabolites must be able to cross the epithelium to mediate their functions and our earlier data confirmed <10 kD fraction pertained this ability. Therefore, we used the trans-well system to test if the identified metabolites were able to cross the epithelium. As we did previously, Caco-2 cells were culture for 2 weeks, to allow tight junctions to form. While the lower chamber contained C57BL/6 mouse BMDMs. We then measured the ability for NC, MQ and JE to cross the tight junctions without disrupting the integrity of the tight junctions. We did each separately and combined as well.

[4] = system: Human corneal epithelial cells; assay: NC on IL-6 release in HCECs; assay type: cell-based; conditions: 50 μM NC 18 hours, 6-8 hours
Procedure: FIG. 30. NC on IL-6 Release in HCECs. Human corneal epithelial cells were plated at a uniform density of 0.2×10^6 cells/mL in 24 well plates. These cells were allowed to adhere for 6-8 hours. They were then treated 18 hours with 50tM of metabolite NC before being stimulated with 1 tg/mL of PA-Flagellin or 50 tg/mL Poly I:C. Supernatant was collected between 6-8 hours after addition of TLR agonist and centrifuged at 1250 rpms for 5 minutes to remove any debris. IL-6 in the supernatant was then quantified using a sandwich ELISA for human IL-6 with a standard of known IL-6 concentration.
Human corneal epithelial cells (HCECs) are a cell type used for models of ocular inflammation. To determine the specificity of HCEC TLR signaling, HCECs were stimulated with various TLR agonists. In this experimental model, HCECs only release IL-6 in response to TLR3 and TLR5 agonists (Poly I:C and Fla, respectively) in vitro (FIG. 29). Therefore, only Poly I:C and Fla were used for HCEC stimulation in subsequent experiments.
To determine if NC can mitigate TLR-related inflammation, HCECs were plated at a uniform density, incubated with 50 μM metabolite NC for 18 hours, and stimulated with flagellin or Poly I:C. After 6-8 hours, supernatant was collected and IL-6 was quantified. […] FIG. 30.

Row | Compound | IL-β production stimulated by LPS and ATP (NLRP3 inflammasome [1]) | LPS-stimulated macrophage production of IL-6 (Mouse macrophages) | LPS-stimulated macrophage production of TNFa (Mouse macrophages) | IL-β production stimulated by LPS and ATP (NLRP3 inflammasome [2]) | IL-6 expression (FIG. 6) (THP-1 macrophages) | LPS-stimulated macrophage production of IL-6 (THP-1 macrophages) | LPS-stimulated macrophage production of TNFa (THP-1 macrophages) | TNFα production by cells in lower chamber [3] | ability to cross the tight junctions of epithelial cells [3] | release of IL-6 in response to Poly I:C ([4]; Poly I:C) | release of IL-6 in response to Fla ([4]; flagellin)
1 | CC(=O)O[C@@H]1CC[C@H]2[C@H]3CC[C@H]4CC(F)(F)CC[C@]4(C)[C@H]3CC[C@]12C [JE, 3,3-Difluoro-5-alpha-androstan-17-beta-yl acetate] | inhibited | inhibited | inhibited | inhibited | reduce | inhibited | inhibited | suppress |  |  | 
2 | CCCCCCCCCCCCCCCC(=O)N[C@@H](C(=O)O)[C@H](C)O [NC, N-Palmitoyl-D-Threonine] |  |  |  |  | reduce |  |  | suppress | can pass through | does not significantly reduce; also recorded: modestly reduced | does not significantly reduce
3 | Prednicarbate [MQ] | inhibited | inhibited | inhibited | inhibited | reduce | inhibited | inhibited | suppress | can pass through |  | 
